From patent publication US5168102A, “Endocrine manipulation to improve body composition of poultry” (priority 1990, dated 1992)
Entries after “also recorded” stand apart in the source; their conditions may differ.

How the values were obtained:
[1] = Example 1: body composition (proximate analysis of carcass); format: in vivo, broiler cockerels (Ross X Arbor Acre strain)
Excerpt: The purpose of this study was to determine the effect manipulating blood levels of thyroid hormones and/or growth hormone on growth performance and body composition of broiler chickens. […] Purified natural chicken growth hormone (ncGH) was obtained from the Research and Education Center, Harbor-UCLA Medical Center, Torrance, Calif. […] The premix (200 g) was then used to prepare 50 kg batches of each experimental diet according to the formula for broiler-finisher ration described in Table 1. The diet containing 0.5% PTU was prepared by mixing 250 g of PTU into 49.75 kg of the basal ration (Table 1).
Broiler cockerels (Ross X Arbor Acre strain) were raised to 3 weeks-of-age in a battery-brooder and then transferred to wire grow-out cages (4 birds/pen) held in two controlled-environment rooms (10 pens/room). Beginning at 3 weeks of age, eight birds (2 pens of 4 birds) were randomly assigned to each of 10 treatments. The chickens were provided the experimental diets and water ad libitum. […] For injection, the ncGH was reconstituted in sterile 0.025M sodium bicarbonate buffer (pH 9.8). The 10 treatments were administered for 21 days (i.e., from 3 to 6 weeks of age).
Measurement of body weight and feed consumption at weekly intervals allowed calculation of the average daily gain (ADG, g/bird/day), average daily feed consumption (ADFC, g/bird/day) and the feed-to-gain ratio (FIG, kg feed/kg gain) over the 21 day experimental period. Blood samples were taken each week (4, 5, and 6 weeks) just before (pre-injection) and 4 hours post-injection of ncGH. […] At the conclusion of the study, birds were killed and the carcasses frozen for proximate analysis. The frozen carcasses were ground in a meat grinder and aliquots of each ground carcass taken for determination of moisture, protein, fat and ash by established analytical procedures (Official Method of Analysis, Edition 13, W. Horwitz ed., Association of Official Analytical Chemist, Washington, D.C., 1980). Body composition data are presented as a percent of live weight at 6 weeks-of-age. Least squares regression analysis was used to test for significant differences (P<0.05) due treatment.

[2] = Example 2: final body weight, liver, abdominal fat and body composition; format: in vivo, broiler cockerels (Ross X Arbor Acre)
Experimental: Forty-eight 3-week-old broiler cockerels (Ross X Arbor Acre) were randomly divided into four treatment groups that contained three pens of four birds. The birds were housed in a controlled-environment room under a 20 hour light/4 hour dark cycle with feed and water provided ad libitum.
The preparation of ncGH used in this study was from the same lot used in Example 1.
Body weights and feed consumption was determined at weekly intervals although the ADG, ADFC and FTG ratio was determined over the 21 day period. […] At the conclusion of the study (6 weeks-of-age), birds were killed and the abdominal fat removed and weighed. The liver and abdominal fat were returned to the carcass which was frozen for proximate analysis as described in […]

[3] = Example 3: growth performance, graded doses of dietary T3; format: in vivo, broiler cockerels; conditions: for Average Daily Gain: week no. 5 to 7
Experimental: Day-old broiler cockerels were randomly assigned to 24 pens (5 birds/pen) in a battery brooder. The total duration of the bird management period lasted from 7 to 8 weeks. Hereafter, the end of the first week of life of the birds is referred to as week no. 1 (i.e. 7 days of life), the end of the second week as week no. 2, etc. At week no. 3, four birds from each pen were transferred to wire grow-out cages. […] 5 to week no. 7 (4 pens/treatment). Body weight and feed consumption were determined at weekly intervals. A 5 ml blood sample was obtained from each bird at week no. 7 and stored at -20° C. until assayed for plasma hormones.
Data were analyzed by analysis of variance for a randomized complete-block design. Data for ADG, ADFC and FTG were based on pen average. Unless otherwise indicated, data used for analysis was obtained from individual birds. Difference among treatments were tested by Fisher's protected LSD method.

[4] = Example 3: plasma hormone levels (RIA); format: in vivo, broiler cockerels
Experimental: Day-old broiler cockerels were randomly assigned to 24 pens (5 birds/pen) in a battery brooder. The total duration of the bird management period lasted from 7 to 8 weeks. […] 3, four birds from each pen were transferred to wire grow-out cages. […] Body weight and feed consumption were determined at weekly intervals. A 5 ml blood sample was obtained from each bird at week no. 7 and stored at -20° C. until assayed for plasma hormones.
Equilibrium, double antibodies radioimmunoassays (RIA) were used to determine plasma levels of chicken growth hormone (GH) according to Proudman, Proc. Soc. […] Plasma insulin was quantified by using nonequilibrium RIA described by McMurtry et al., Poult. […] Plasma level of insulin-like growth factor-I (IGF-I) was determined by heterologous RIA in accordance with McGuinness.

[5] = Group 1, dietary, 6 weeks-of-age, N = 8
[6] = plasma thyroid hormone bioactivity 360-1200% of normal

N[C@@H](Cc1cc(I)c(Oc2ccc(O)c(I)c2)c(I)c1)C(=O)O [T3, 3,3',5-triiodo-L-thyronine]
Body composition: Ash [1, 5]: 2.19 ± .05 % BW
Body composition: Fat [1, 5]: 10.1 ± 1.2 % BW
Body composition: Protein [1, 5]: 18.4 ± .22 % BW
Body composition: Water [1, 5]: 68.6 ± 1.0 % BW
effect on fat deposition ([1]; finishing phase): decreases fat deposition in chickens
body fat content, reduction ([1]; vs CF group): 17%
effect on body protein, water and ash ([1]; vs CF group): body protein and water were slightly increased
body fat content (% BW), reduction ([2]; 1 ppm T3, with or without ncGH): 16%
abdominal fat content, reduction ([2]; 1 ppm T3, with or without ncGH (P<0.05)): 28%
Body Weight (BW), final ([2]; 1 ppm T3 and/or ncGH 100 μg/kg/day, 6 weeks-of-age, N = 12): 1.86 ± .048 kg
Abdominal Fat, relative weight ([2]; N = 12): 1.86 ± .396 % BW
Body composition: Ash ([2]; N = 12): 2.40 ± .054 % BW
Body composition: Fat ([2]; N = 12): 13.2 ± .62 % BW
Body composition: Protein ([2]; N = 12): 17.3 ± .36 % BW
Body composition: Water ([2]; N = 12): 65.5 ± .60 % BW
Liver, relative weight ([2]; N = 12): 2.54 ± .096 % BW
effect on body water and ash contents ([2]; in vivo): increased
effect on ADFC and GTF ([3]; 0.25 and 1.0 ppm): did not affect the ADFC and GTF
effect on ADG ([3]; 0.25 ppm): the decrease in 0.25 ppm-fed birds was not significant
Average Daily Feed Consumption ([3]; 0.25 ppm of feed): 150.2 ± 10.0 g
Gain-To-Feed Ratio ([3]; 0.25 ppm of feed): 0.441 ± .014
Average Daily Gain ([3]; 0.25 ppm of feed): 66.5 ± 6.0 g
Average Daily Feed Consumption ([3]; 1.0 ppm of feed): 139.0 ± 4.6 g
Gain-To-Feed Ratio ([3]; 1.0 ppm of feed): 0.409 ± 0.01
Average Daily Gain ([3]; 1.0 ppm of feed): 57.0 ± 3.0 g
ADFC, reduction ([3]; 4.0 ppm (p<0.05)): 35%
gain to feed ratio (GTF), reduction ([3]; 4.0 ppm (p<0.05)): 33%
Average Daily Feed Consumption ([3]; 4.0 ppm of feed): 99.5 ± 1.7 g
Gain-To-Feed Ratio ([3]; 4.0 ppm of feed): 0.302 ± .013
Average Daily Gain ([3]; 4.0 ppm of feed): 30.0 ± 1.1 g
body weight gain, depression [3, 6]: ≤ 57%
feed consumption, depression [3, 6]: ≤ 35%
glucagon secretion, increase ([4]; 0.25 ppm): 16%
plasma T3 level, fold elevation ([4]; 0.25 ppm): 2.1 fold
plasma insulin, reduction ([4]; 0.25 ppm): 27%
I/G ratio, reduction ([4]; 0.25 ppm (p<0.05)): 31%
I/G Ratio (molar) ([4]; 0.25 ppm of feed): 0.81 ± .20
plasma GH ([4]; 0.25 ppm of feed): 2.0 ± 0.4 ng/mL
plasma Glucagon ([4]; 0.25 ppm of feed): 656 ± 75 pg/mL
plasma IGF-I ([4]; 0.25 ppm of feed): 100.7 ± 2.9 ng eg/ml
plasma Insulin ([4]; 0.25 ppm of feed): 772 ± 155 pg/mL
plasma T4 ([4]; 0.25 ppm of feed): 6.3 ± 0.6 ng/mL
effect on plasma IGF-1 level ([4]; 0.25 to 4.0 ppm): only reduced (p<0.05) by the 4.0 ppm level
I/G molar ratio, reduction ([4]; 1 or 4 ppm (p<0.05)): 70-76%
glucagon secretion, increase ([4]; 1.0 ppm (p<0.05)): 44%
plasma insulin, reduction ([4]; 1.0 ppm (p<0.05)): 60%
I/G Ratio (molar) ([4]; 1.0 ppm of feed): 0.35 ± .06
plasma GH ([4]; 1.0 ppm of feed): 2.1 ± 0.4 ng/mL
plasma Glucagon ([4]; 1.0 ppm of feed): 816 ± 64 pg/mL
plasma IGF-I ([4]; 1.0 ppm of feed): 97.7 ± 6.3 ng eg/ml
plasma Insulin ([4]; 1.0 ppm of feed): 426 ± 65 pg/mL
plasma T4 ([4]; 1.0 ppm of feed): 6.2 ± 0.6 ng/mL
plasma T3 level, fold elevation ([4]; 4 ppm): 12.6 fold
glucagon secretion, increase ([4]; 4.0 ppm (p<0.05)): 46%
plasma insulin, reduction ([4]; 4.0 ppm (p<0.05)): 68%
Plasma T3 level (control group = 100% of normal) ([4]; 4 ppm in feed): ~ 1254%
I/G Ratio (molar) ([4]; 4.0 ppm of feed): 0.28 ± .08
plasma GH ([4]; 4.0 ppm of feed): 1.8 ± 0.2 ng/mL
plasma Glucagon ([4]; 4.0 ppm of feed): 824 ± 61 pg/mL
plasma IGF-I ([4]; 4.0 ppm of feed): 58.8 ± 8.2 ng eg/ml
plasma Insulin ([4]; 4.0 ppm of feed): 344 ± 92 pg/mL
plasma T4 ([4]; 4.0 ppm of feed): 5.1 ± 0.8 ng/mL
effect on plasma GH levels ([4]; all dietary T3 levels): decreased (p<0.05); also recorded: decrease plasma GH levels
plasma T4 level, decrease ([4]; regardless of dose level (p<0.05)): 67%
